Species: Rattus norvegicus
Test: Open TG-GATES - Regimen: Single
Type: toxicity, organism-based, Sprague-Dawley
Design: regimen Single, gender Male, age 6 weeks
Settings: in vivo, iv, 6 mg/kg, route intravenous injection, dose level Low; for APTT / Bas / Eos / Fbg / Hb / Ht / Lym / MCH / MCHC / MCV / Mono / Neu / PT / Plat / RBC / Ret / WBC: tissue Blood; for KIDNEY_L / KIDNEY_R / KIDNEY_TOTAL: tissue Kidney; for LIVER: tissue Liver; for A/G / ALP / ALT / AST / BUN / CRE / Ca / Cl / DBIL / GLC / IP / K / LDH / Na / PL / RALB / TBIL / TC / TG / TP / gamma-GTP: tissue Plasma

SMILES: NCCBr [BROMOETHANAMINE]
- TERMINAL_BW (3 h): 221.9 g
- APTT (3 h): 22.5 s
- Bas (3 h): 0%
- Eos (3 h): 0.4%
- Fbg (3 h): 300 mg/dL
- Hb (3 h): 13.3 g/dL
- Ht (3 h): 39.3%
- Lym (3 h): 77.8%
- MCH (3 h): 21.5 pg
- MCHC (3 h): 33.8%
- MCV (3 h): 63.5 fL
- Mono (3 h): 3%
- Neu (3 h): 18%
- PT (3 h): 16 s
- Plat (3 h): 125.4 x10_4/uL
- RBC (3 h): 618.4 x10_4/ul
- Ret (3 h): 6.4%
- WBC (3 h): 83.3 x10_2/uL
- KIDNEY_L (3 h): 1 g
- KIDNEY_R (3 h): 1 g
- KIDNEY_TOTAL (3 h): 2 g
- LIVER (3 h): 10.5 g
- A/G (3 h): 1.2
- ALP (3 h): 1604 IU/L
- ALT (3 h): 44.6 IU/L
- AST (3 h): 78 IU/L
- BUN (3 h): 14.4 mg/dL
- CRE (3 h): 0.2 mg/dL
- Ca (3 h): 10.8 mg/dL
- Cl (3 h): 106.2 meq/L
- DBIL (3 h): 0 mg/dL
- GLC (3 h): 167.8 mg/dL
- IP (3 h): 7.9 mg/dL
- K (3 h): 4.4 meq/L
- LDH (3 h): 187.8 IU/L
- Na (3 h): 142 meq/L
- PL (3 h): 140.8 mg/dL
- RALB (3 h): 3 g/dL
- TBIL (3 h): 0.02 mg/dL
- TC (3 h): 76.8 mg/dL
- TG (3 h): 101 mg/dL
- TP (3 h): 5.4 g/dL
- gamma-GTP (3 h): 2 IU/L
- TERMINAL_BW (6 h): 218.1 g
- APTT (6 h): 23.7 s
- Bas (6 h): 0%
- Eos (6 h): 0.6%
- Fbg (6 h): 311 mg/dL
- Hb (6 h): 13.3 g/dL
- Ht (6 h): 39.1%
- Lym (6 h): 83%
- MCH (6 h): 21.1 pg
- MCHC (6 h): 34.1%
- MCV (6 h): 61.9 fL
- Mono (6 h): 2.6%
- Neu (6 h): 12.6%
- PT (6 h): 16.2 s
- Plat (6 h): 118.5 x10_4/uL
- RBC (6 h): 632.6 x10_4/ul
- Ret (6 h): 6.5%
- WBC (6 h): 95.2 x10_2/uL
- KIDNEY_L (6 h): 1 g
- KIDNEY_R (6 h): 1 g
- KIDNEY_TOTAL (6 h): 2 g
- LIVER (6 h): 9.3 g
- A/G (6 h): 1.1
- ALP (6 h): 1385.2 IU/L
- ALT (6 h): 39 IU/L
- AST (6 h): 71.4 IU/L
- BUN (6 h): 10.6 mg/dL
- CRE (6 h): 0.1 mg/dL
- Ca (6 h): 10.5 mg/dL
- Cl (6 h): 105.8 meq/L
- DBIL (6 h): 0 mg/dL
- GLC (6 h): 178.8 mg/dL
- IP (6 h): 8.9 mg/dL
- K (6 h): 4.4 meq/L
- LDH (6 h): 147 IU/L
- Na (6 h): 140.8 meq/L
- PL (6 h): 128.8 mg/dL
- RALB (6 h): 2.8 g/dL
- TBIL (6 h): 0.02 mg/dL
- TC (6 h): 74.4 mg/dL
- TG (6 h): 49.2 mg/dL
- TP (6 h): 5.4 g/dL
- gamma-GTP (6 h): 2 IU/L
- TERMINAL_BW (9 h): 207.3 g
- APTT (9 h): 22.3 s
- Bas (9 h): 0%
- Eos (9 h): 0.6%
- Fbg (9 h): 297 mg/dL
- Hb (9 h): 13.4 g/dL
- Ht (9 h): 38.5%
- Lym (9 h): 80.4%
- MCH (9 h): 21.4 pg
- MCHC (9 h): 34.7%
- MCV (9 h): 61.8 fL
- Mono (9 h): 2.2%
- Neu (9 h): 16.2%
- PT (9 h): 16.3 s
- Plat (9 h): 110.5 x10_4/uL
- RBC (9 h): 623.6 x10_4/ul
- Ret (9 h): 5.4%
- WBC (9 h): 73.1 x10_2/uL
- KIDNEY_L (9 h): 0.9 g
- KIDNEY_R (9 h): 0.9 g
- KIDNEY_TOTAL (9 h): 1.8 g
- LIVER (9 h): 8 g
- A/G (9 h): 1.2
- ALP (9 h): 1508.8 IU/L
- ALT (9 h): 34 IU/L
- AST (9 h): 70 IU/L
- BUN (9 h): 12.8 mg/dL
- CRE (9 h): 0.2 mg/dL
- Ca (9 h): 10.5 mg/dL
- Cl (9 h): 106.2 meq/L
- DBIL (9 h): 0 mg/dL
- GLC (9 h): 174 mg/dL
- IP (9 h): 9.1 mg/dL
- K (9 h): 4.3 meq/L
- LDH (9 h): 129 IU/L
- Na (9 h): 141.2 meq/L
- PL (9 h): 121.8 mg/dL
- RALB (9 h): 2.9 g/dL
- TBIL (9 h): 0.018 mg/dL
- TC (9 h): 71.6 mg/dL
- TG (9 h): 48.4 mg/dL
- TP (9 h): 5.4 g/dL
- gamma-GTP (9 h): 1.4 IU/L
- TERMINAL_BW (24 h): 221.5 g
- APTT (24 h): 23.6 s
- Bas (24 h): 0%
- Eos (24 h): 0.8%
- Fbg (24 h): 322.8 mg/dL
- Hb (24 h): 14 g/dL
- Ht (24 h): 40.5%
- Lym (24 h): 79.8%
- MCH (24 h): 21 pg
- MCHC (24 h): 34.6%
- MCV (24 h): 60.7 fL
- Mono (24 h): 2.8%
- Neu (24 h): 15.6%
- PT (24 h): 16.4 s
- Plat (24 h): 121.7 x10_4/uL
- RBC (24 h): 666.6 x10_4/ul
- Ret (24 h): 5.5%
- WBC (24 h): 96.1 x10_2/uL
- KIDNEY_L (24 h): 1 g
- KIDNEY_R (24 h): 1.1 g
- KIDNEY_TOTAL (24 h): 2.1 g
- LIVER (24 h): 10.8 g
- A/G (24 h): 1.1
- ALP (24 h): 1490 IU/L
- ALT (24 h): 44.6 IU/L
- AST (24 h): 67.6 IU/L
- BUN (24 h): 18 mg/dL
- CRE (24 h): 0.2 mg/dL
- Ca (24 h): 10.7 mg/dL
- Cl (24 h): 105.8 meq/L
- DBIL (24 h): 0 mg/dL
- GLC (24 h): 183.6 mg/dL
- IP (24 h): 6.8 mg/dL
- K (24 h): 4.6 meq/L
- LDH (24 h): 187.8 IU/L
- Na (24 h): 141.6 meq/L
- PL (24 h): 162.8 mg/dL
- RALB (24 h): 2.9 g/dL
- TBIL (24 h): 0.01 mg/dL
- TC (24 h): 90.8 mg/dL
- TG (24 h): 99.4 mg/dL
- TP (24 h): 5.6 g/dL
- gamma-GTP (24 h): 1.8 IU/L

Source: ChEMBL document CHEMBL3885861, “Open TG-GATES”
